Reference: ChEMBL document CHEMBL1157931 (Bioorg Med Chem, 2010)
Active and inactive are the calls of the source. The calls are words filed in the database; no cut-off is given here.

Key:
[1] = biological target: ATP-dependent translocase ABCB1 (Homo sapiens, UniProt P08183); assay: Inhibition of human MDR1 expressed in MDCK cells assessed as fluorescence activity at 30 uM after 1.5 hrs by rhodamine 123 efflux test; assay type: cell-based
Caco-2 [2] = assay: Permeability in human Caco-2 cells assessed as passive diffusion after 3 hrs by HPLC; assay type: ADME, cell-based; conditions: caco-2, 3 h
[3] = biological target: T1, 5-hydroxytryptamine receptor 1A (Homo sapiens) (UniProt P08908); assay: Displacement of [3H]8-OH-DPAT from 5HT1A receptor expressed in HEK293 cells at 25 ug/ml after 2 hrs by liquid scintillation counting; assay type: cell-based
T1 sequence (whole entry): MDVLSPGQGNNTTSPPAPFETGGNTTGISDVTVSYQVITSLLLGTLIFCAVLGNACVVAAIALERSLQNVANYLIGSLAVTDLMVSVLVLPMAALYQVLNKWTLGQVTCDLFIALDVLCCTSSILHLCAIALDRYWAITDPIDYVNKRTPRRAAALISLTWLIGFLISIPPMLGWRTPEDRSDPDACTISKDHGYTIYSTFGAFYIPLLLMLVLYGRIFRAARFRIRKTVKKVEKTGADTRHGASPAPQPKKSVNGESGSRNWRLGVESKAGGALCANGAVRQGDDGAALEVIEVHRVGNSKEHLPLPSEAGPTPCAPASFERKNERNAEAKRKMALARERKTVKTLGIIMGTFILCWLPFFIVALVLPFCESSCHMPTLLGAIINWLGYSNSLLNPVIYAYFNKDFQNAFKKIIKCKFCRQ

[4] = biological target: T1, 5-hydroxytryptamine receptor 1A (Homo sapiens); assay: Antagonist activity at 5HT1A receptor expressed in HEK293 cells assessed as inhibition of serotonin-induced [S35]GTPgammaS binding by scintillation counting; assay type: functional, cell-based
[5] = biological target: T2, 5-hydroxytryptamine receptor 1A (Homo sapiens, UniProt P08908); assay: Displacement of [3H]8-OH-DPAT from 5HT1A receptor expressed in HEK293 cells after 2 hrs by liquid scintillation counting; assay type: cell-based
T2 sequence (P08908 whole entry): T1 sequence (whole entry)

[6] = biological target: T1, 5-hydroxytryptamine receptor 1A (Homo sapiens); assay: Agonist activity at 5HT1A receptor expressed in HEK293 cells by [S35]GTPgammaS binding assay relative to 8-OH-DPAT; assay type: functional, cell-based; design: concentration or dose not given beside the values
[7] = biological target: T1, 5-hydroxytryptamine receptor 1A (Homo sapiens); assay: Antagonist activity at 5HT1A receptor expressed in HEK293 cells assessed as inhibition of 8-OH-DPAT-induced [S35]GTPgammaS binding by scintillation counting; assay type: functional, cell-based
Caco-2 [8] = assay: Cytotoxicity against human Caco-2 cells at 50 ug/ml; assay type: cell-based
[9] = biological target: T1, 5-hydroxytryptamine receptor 1A (Homo sapiens); assay: Agonist activity at 5HT1A receptor expressed in HEK293 cells at >20 uM by [S35]GTPgammaS binding assay relative to 8-OH-DPAT; assay type: functional, cell-based

Sequence of ATP-dependent translocase ABCB1 (P08183 whole entry, the tested form may be a part): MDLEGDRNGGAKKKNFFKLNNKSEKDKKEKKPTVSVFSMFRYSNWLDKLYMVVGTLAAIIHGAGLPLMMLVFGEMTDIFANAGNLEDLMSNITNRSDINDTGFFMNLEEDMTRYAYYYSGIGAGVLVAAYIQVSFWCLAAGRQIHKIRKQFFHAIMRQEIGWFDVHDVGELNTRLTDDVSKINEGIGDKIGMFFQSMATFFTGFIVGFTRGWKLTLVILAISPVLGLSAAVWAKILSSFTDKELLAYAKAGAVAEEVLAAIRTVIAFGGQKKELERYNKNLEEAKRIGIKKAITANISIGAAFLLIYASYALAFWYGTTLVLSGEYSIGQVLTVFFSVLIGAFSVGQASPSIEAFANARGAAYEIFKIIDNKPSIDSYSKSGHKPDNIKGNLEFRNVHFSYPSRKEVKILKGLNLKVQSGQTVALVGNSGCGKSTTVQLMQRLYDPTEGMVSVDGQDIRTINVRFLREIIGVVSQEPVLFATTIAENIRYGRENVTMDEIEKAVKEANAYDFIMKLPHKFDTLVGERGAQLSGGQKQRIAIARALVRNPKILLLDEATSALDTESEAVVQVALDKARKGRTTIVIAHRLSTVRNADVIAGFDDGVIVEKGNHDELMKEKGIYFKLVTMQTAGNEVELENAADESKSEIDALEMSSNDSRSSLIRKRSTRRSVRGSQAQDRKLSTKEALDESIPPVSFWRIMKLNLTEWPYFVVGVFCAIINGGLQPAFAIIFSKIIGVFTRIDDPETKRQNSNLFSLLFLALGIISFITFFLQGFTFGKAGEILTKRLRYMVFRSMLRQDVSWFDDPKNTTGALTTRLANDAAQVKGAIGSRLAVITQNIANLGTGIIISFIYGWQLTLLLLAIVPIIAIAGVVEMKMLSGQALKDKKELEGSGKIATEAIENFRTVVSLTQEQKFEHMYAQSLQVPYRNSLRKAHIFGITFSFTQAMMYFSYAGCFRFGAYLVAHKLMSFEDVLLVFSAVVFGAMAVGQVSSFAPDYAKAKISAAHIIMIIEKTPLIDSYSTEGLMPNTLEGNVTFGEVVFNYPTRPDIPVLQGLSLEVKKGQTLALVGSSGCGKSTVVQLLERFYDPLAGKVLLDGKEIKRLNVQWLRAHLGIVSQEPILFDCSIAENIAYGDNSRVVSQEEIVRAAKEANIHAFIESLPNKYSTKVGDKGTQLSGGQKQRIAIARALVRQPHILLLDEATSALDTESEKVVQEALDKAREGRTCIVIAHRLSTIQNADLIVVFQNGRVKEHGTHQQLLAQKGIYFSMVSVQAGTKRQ

SMILES | inhibition (INH) [1] | permeability (Caco-2 [2]) [%] | Activity [3] [%] | Activity [4] | Ki [5] [µM] | Activity [6] [%] | Activity [7] | Activity (Caco-2 [8]) | Activity [9]
CCCCCCCCC/C=C/C(=O)CCc1ccc(O)c(OC)c1 | Not Active | 10 | > 50 | inactive | 5.84 | > 20 | inactive | Non-toxic | inactive
CC[C@]1(O)C[C@@H]2CN(CCc3c([nH]c4ccccc34)[C@@](C(=O)OC)(c3cc4c(cc3OC)N(C)[C@H]3[C@@](O)(C(=O)OC)[C@H](OC(C)=O)[C@]5(CC)C=CCN6CC[C@]43[C@@H]65)C2)C1 [VINBLASTINE] | Active |  |  |  |  |  |  |  | 
CCCCCCCCC/C(O)=C/C(=O)/C=C/c1ccc(O)c(OC)c1 | Not Active |  | > 50 | inactive | 3.59 |  | inactive |  | 
CCCCC/C=C/C(=O)CCc1ccc(O)c(OC)c1 [SHOGAOL] | Not Active |  | > 50 | inactive | 18 |  | inactive |  | 
CCCCCCC/C=C/C(=O)CCc1ccc(O)c(OC)c1 | Not Active |  | > 50 | inactive | 13 |  | inactive |  | 
CCCCCCCC(O)CCc1ccc(O)c(OC)c1 (configuration not stated) |  |  |  |  | 9.53 | > 10 |  |  | 
CCCCCC(=O)/C=C(O)/C=C/c1ccc(O)c(OC)c1 | Not Active |  | > 50 | inactive | 6.53 | > 20 | inactive |  | inactive
CCCCCCC/C(O)=C/C(=O)/C=C/c1ccc(O)c(OC)c1 | Not Active |  | > 50 | inactive | 6.54 |  | inactive |  | 
CCCCCCCCC[C@H](O)CC(=O)CCc1ccc(O)c(OC)c1 | Not Active | 10 | > 50 | inactive | 3.74 | > 10 | inactive | Non-toxic | 
NCCc1c[nH]c2ccc(O)cc12 |  |  |  |  |  | 100 |  |  | 
CCCCCCC[C@H](O)CC(=O)CCc1ccc(O)c(OC)c1 | Not Active | 10 | > 50 | inactive | 11.7 |  | inactive | Non-toxic | 
CCCCC[C@H](O)CC(=O)CCc1ccc(O)c(OC)c1 [GINGEROL] | Not Active | 10 | > 50 | inactive | > 100 |  | inactive | Non-toxic | 
